According to PubChem BioAssay (NCI):
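Five compound concentrations were applied to cells in 96-well plates for 48 hours; endpoints were derived by simple linear interpolation of the resulting dose-response curve. TGI is the concentration that stops growth completely.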

Experiments:
Experiment in all cases: DTP human tumour cell line panel, 48 h
786-0 renal = system: 786-0 renal
A549 NSCLC = system: A549 NSCLC
ACHN renal = system: ACHN renal
BT-549 breast = system: BT-549 breast
CAKI-1 renal = system: CAKI-1 renal
CCRF-CEM leukemia = system: CCRF-CEM leukemia
COLO 205 colon = system: COLO 205 colon
DU-145 prostate = system: DU-145 prostate
EKVX NSCLC = system: EKVX NSCLC
HCC-2998 colon = system: HCC-2998 colon
HCT-116 colon = system: HCT-116 colon
HCT-15 colon = system: HCT-15 colon
HL-60(TB) leukemia = system: HL-60(TB) leukemia
HOP-62 NSCLC = system: HOP-62 NSCLC
HS 578T breast = system: HS 578T breast
HT29 colon = system: HT29 colon
IGROV1 ovarian = system: IGROV1 ovarian
K-562 leukemia = system: K-562 leukemia
KM12 colon = system: KM12 colon
LOX IMVI melanoma = system: LOX IMVI melanoma
M14 melanoma = system: M14 melanoma
MALME-3M melanoma = system: MALME-3M melanoma
MCF7 breast = system: MCF7 breast
MDA-MB-231 breast = system: MDA-MB-231 breast
MDA-MB-435 = system: MDA-MB-435
MDA-N = system: MDA-N
MOLT-4 leukemia = system: MOLT-4 leukemia
NCI-H226 lung = system: NCI-H226 lung
NCI-H23 lung = system: NCI-H23 lung
NCI-H460 lung = system: NCI-H460 lung
NCI-H522 lung = system: NCI-H522 lung
NCI/ADR-RES ovarian = system: NCI/ADR-RES ovarian
OVCAR-3 ovarian = system: OVCAR-3 ovarian
OVCAR-4 ovarian = system: OVCAR-4 ovarian
OVCAR-5 ovarian = system: OVCAR-5 ovarian
OVCAR-8 ovarian = system: OVCAR-8 ovarian
PC-3 prostate = system: PC-3 prostate
RPMI-8226 leukemia = system: RPMI-8226 leukemia
RXF 393 renal = system: RXF 393 renal
SF-268 CNS = system: SF-268 CNS
SF-295 CNS = system: SF-295 CNS
SF-539 CNS = system: SF-539 CNS
SK-MEL-2 melanoma = system: SK-MEL-2 melanoma
SK-MEL-28 melanoma = system: SK-MEL-28 melanoma
SK-OV-3 ovarian = system: SK-OV-3 ovarian
SN12C renal = system: SN12C renal
SNB-19 CNS = system: SNB-19 CNS
SNB-75 CNS = system: SNB-75 CNS
SR leukemia = system: SR leukemia
SW-620 colon = system: SW-620 colon
T-47D breast = system: T-47D breast
TK-10 renal = system: TK-10 renal
U251 CNS = system: U251 CNS
UACC-257 melanoma = system: UACC-257 melanoma
UACC-62 melanoma = system: UACC-62 melanoma
UO-31 renal = system: UO-31 renal
A498 renal = system: A498 renal
HOP-92 NSCLC = system: HOP-92 NSCLC
SK-MEL-5 melanoma = system: SK-MEL-5 melanoma

CC(OC(=O)C(CC(=O)OC(C)(C)C)NC(=O)OC(C)(C)C)C(=O)OCc1ccccc1 (stereo not drawn)
TGI (786-0 renal): > 100 µM | TGI (A549 NSCLC): > 100 µM | TGI (ACHN renal): > 100 µM | TGI (BT-549 breast): > 100 µM | TGI (CAKI-1 renal): > 100 µM | TGI (CCRF-CEM leukemia): > 100 µM | TGI (COLO 205 colon): > 100 µM | TGI (DU-145 prostate): > 100 µM | TGI (EKVX NSCLC): > 100 µM | TGI (HCC-2998 colon): > 100 µM | TGI (HCT-116 colon): > 100 µM | TGI (HCT-15 colon): > 100 µM | TGI (HL-60(TB) leukemia): > 100 µM | TGI (HOP-62 NSCLC): > 100 µM | TGI (HS 578T breast): > 100 µM | TGI (HT29 colon): > 100 µM | TGI (IGROV1 ovarian): > 100 µM | TGI (K-562 leukemia): > 100 µM | TGI (KM12 colon): > 100 µM | TGI (LOX IMVI melanoma): > 100 µM | TGI (M14 melanoma): > 100 µM | TGI (MALME-3M melanoma): > 100 µM | TGI (MCF7 breast): > 100 µM | TGI (MDA-MB-231 breast): > 100 µM | TGI (MDA-MB-435): > 100 µM | TGI (MDA-N): > 100 µM | TGI (MOLT-4 leukemia): > 100 µM | TGI (NCI-H226 lung): > 100 µM | TGI (NCI-H23 lung): > 100 µM | TGI (NCI-H460 lung): > 100 µM | TGI (NCI-H522 lung): > 100 µM | TGI (NCI/ADR-RES ovarian): > 100 µM | TGI (OVCAR-3 ovarian): > 100 µM | TGI (OVCAR-4 ovarian): > 100 µM | TGI (OVCAR-5 ovarian): > 100 µM | TGI (OVCAR-8 ovarian): > 100 µM | TGI (PC-3 prostate): > 100 µM | TGI (RPMI-8226 leukemia): > 100 µM | TGI (RXF 393 renal): > 100 µM | TGI (SF-268 CNS): > 100 µM | TGI (SF-295 CNS): > 100 µM | TGI (SF-539 CNS): > 100 µM | TGI (SK-MEL-2 melanoma): > 100 µM | TGI (SK-MEL-28 melanoma): > 100 µM | TGI (SK-OV-3 ovarian): > 100 µM | TGI (SN12C renal): > 100 µM | TGI (SNB-19 CNS): > 100 µM | TGI (SNB-75 CNS): > 100 µM | TGI (SR leukemia): > 100 µM | TGI (SW-620 colon): > 100 µM | TGI (T-47D breast): > 100 µM | TGI (TK-10 renal): > 100 µM | TGI (U251 CNS): > 100 µM | TGI (UACC-257 melanoma): > 100 µM | TGI (UACC-62 melanoma): > 100 µM | TGI (UO-31 renal): > 100 µM

CC(C)(C)c1c2c(c(C(C)(C)C)c3c1OCN(Cc1ccccc1)C3)OCN(Cc1ccccc1)C2
TGI (786-0 renal): 27.7 µM | TGI (A498 renal): 20.6 µM | TGI (A549 NSCLC): 39.8 µM | TGI (ACHN renal): 51.1 µM | TGI (BT-549 breast): 39.4 µM | TGI (CAKI-1 renal): > 100 µM | TGI (CCRF-CEM leukemia): > 100 µM | TGI (COLO 205 colon): 26.6 µM | TGI (DU-145 prostate): 59.7 µM | TGI (EKVX NSCLC): 41.5 µM | TGI (HCC-2998 colon): 22.3 µM | TGI (HCT-116 colon): 24.4 µM | TGI (HCT-15 colon): 33.3 µM | TGI (HOP-62 NSCLC): 53.5 µM | TGI (HOP-92 NSCLC): 28.1 µM | TGI (HS 578T breast): 55.9 µM | TGI (HT29 colon): 37.6 µM | TGI (IGROV1 ovarian): 45.1 µM | TGI (K-562 leukemia): 54.5 µM | TGI (KM12 colon): 57.8 µM | TGI (LOX IMVI melanoma): 31.5 µM | TGI (M14 melanoma): 29 µM | TGI (MALME-3M melanoma): 43.1 µM | TGI (MCF7 breast): 61.6 µM | TGI (MDA-MB-231 breast): 29.3 µM | TGI (MDA-MB-435): > 100 µM | TGI (MDA-N): 30.3 µM | TGI (MOLT-4 leukemia): 50.4 µM | TGI (NCI-H23 lung): 27.4 µM | TGI (NCI-H460 lung): 28.7 µM | TGI (NCI-H522 lung): 23.2 µM | TGI (NCI/ADR-RES ovarian): 41 µM | TGI (OVCAR-3 ovarian): 32.4 µM | TGI (OVCAR-4 ovarian): > 100 µM | TGI (OVCAR-5 ovarian): 39 µM | TGI (OVCAR-8 ovarian): 77.3 µM | TGI (PC-3 prostate): 38 µM | TGI (RPMI-8226 leukemia): 44.6 µM | TGI (RXF 393 renal): 36.2 µM | TGI (SF-268 CNS): 35.6 µM | TGI (SF-295 CNS): 51.6 µM | TGI (SF-539 CNS): 31 µM | TGI (SK-MEL-2 melanoma): 51.5 µM | TGI (SK-MEL-28 melanoma): > 100 µM | TGI (SK-MEL-5 melanoma): 21 µM | TGI (SK-OV-3 ovarian): > 100 µM | TGI (SN12C renal): 34.9 µM | TGI (SNB-19 CNS): 34.7 µM | TGI (SNB-75 CNS): > 100 µM | TGI (SR leukemia): 53.2 µM | TGI (SW-620 colon): > 100 µM | TGI (T-47D breast): > 100 µM | TGI (TK-10 renal): 32.5 µM | TGI (U251 CNS): 29.6 µM | TGI (UACC-257 melanoma): 29.1 µM | TGI (UACC-62 melanoma): 38.7 µM | TGI (UO-31 renal): 35.4 µM
